Laboratory results taken from patent publication US11000033B2, “Ketone or oxime compound, and herbicide” (NISSAN CHEMICAL CORPORATION, priority 2014, dated 2021).

Assays:
Type in all cases: in vivo
[1] = tested on: Leptochloa chinensis; experiment: Test Example 3: herbicidal effect by foliage application, Wagner pot (symbol D); details: application herbicide amount 320 g/ha
Summary of the method: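 Seeds sown in alluvial soil kept under 0.1–0.5 cm water, greenhouse 25–30 °C; 14 d growth. Leaves treated by small sprayer with water-diluted emulsion at a predetermined rate. Effect graded by set scale, 3 weeks.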

[2] = tested on: Setaria viridis; experiment: Test Example 4: herbicidal effect by soil treatment (symbol G)
Summary of the method: (§1)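 Seeds were sown in sterilized diluvial soil, covered with about 1.5 cm of soil, and the soil surface was sprayed with a water-diluted emulsion of the compound at a predetermined rate. Plants grew in a greenhouse at 25° C. to 30° C.; effects were scored visually 3 weeks after application.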

[3] = tested on: Echinochloa crus-galli var. crus-galli; experiment: Test Example 4: herbicidal effect by soil treatment (symbol H)
Summary of the method: as §1

[4] = tested on: Lolium multiflorum Lam.; experiment: Test Example 4: herbicidal effect by soil treatment (symbol K)
Summary of the method: as §1

[5] = tested on: Echinochloa crus-galli var. crus-galli; experiment: Test Example 5: herbicidal effect by foliage application, plastic box (symbol H); details: 320 g/ha, 3 weeks after application
Summary of the method: (§2)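 Herbicide, formulated as an emulsion and diluted in water, is sprayed onto the aerial parts of 14-day seedlings. These were grown at 25° C. to 30° C. in sterilized diluvial soil; effects are graded after 3 weeks.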

[6] = tested on: Amaranthus retroflexus; experiment: Test Example 4: herbicidal effect by soil treatment (symbol N)
Summary of the method: as §1

[7] = tested on: Galium spurium; experiment: Test Example 4: herbicidal effect by soil treatment (symbol Q); details: application herbicide amount 320 g/ha
Summary of the method: as §1

[8] = tested on: wheat; experiment: Test Example 5: effect on crop by foliage application, plastic box (symbol e); details: 320 g/ha, 3 weeks after application
Summary of the method: (§3)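 A greenhouse held between 25° C. and 30° C. was used to grow plants sown spot-wise, beneath ~1.5 cm of soil, in boxes of sterilized diluvial soil.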

[9] = tested on: rapeseed; experiment: Test Example 4: effect on crop by soil treatment (symbol g)
Summary of the method: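 Plants grew in a 25° C. to 30° C. greenhouse after spot-sowing of seeds, including beet, rapeseed, wheat and rice, into sterilized diluvial soil under roughly 1.5 cm of cover soil.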

[10] = tested on: Apera spica-venti; experiment: Test Example 4: herbicidal effect by soil treatment (symbol L)
Summary of the method: as §1

[11] = tested on: Setaria viridis; experiment: Test Example 5: herbicidal effect by foliage application, plastic box (symbol G); details: 320 g/ha, 3 weeks after application
Summary of the method: as §2

[12] = tested on: Alopecurus myosuroides; experiment: Test Example 5: herbicidal effect by foliage application, plastic box (symbol J); details: 320 g/ha, 3 weeks after application
Summary of the method: as §2

[13] = tested on: rapeseed; experiment: Test Example 5: effect on crop by foliage application, plastic box (symbol g); details: 320 g/ha, 3 weeks after application
Summary of the method: as §3

[14] = tested on: Monochoria vaginalis; experiment: Test Example 1: herbicidal activity, application before weed generation in submerged conditions (symbol C); details: application herbicide amount 320 g/ha
Summary of the method: (§4)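 Weed control was rated three weeks after treatment on a 0–5 scale, from 5% or lower up to 90% or more. Pre-emergence water-surface application of diluted emulsion at a predetermined rate was made on the day of sowing, in flooded (4 cm water) pots containing rice seedlings, kept at 25–30 °C under glass.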

[15] = tested on: corn; experiment: Test Example 4: effect on crop by soil treatment (symbol c)
Summary of the method: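 Plants are raised in a greenhouse (25° C. to 30° C.) from spot-sown seed, which sits under about 1.5 cm of sterilized diluvial soil in a box shared with weed species.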

[16] = tested on: Scirpus juncoides; experiment: Test Example 1: herbicidal activity, application before weed generation in submerged conditions (symbol B); details: application herbicide amount 320 g/ha
Summary of the method: as §4

[17] = tested on: Stellaria media; experiment: Test Example 4: herbicidal effect by soil treatment (symbol P)
Summary of the method: as §1

[18] = tested on: Stellaria media; experiment: Test Example 5: herbicidal effect by foliage application, plastic box (symbol P); details: 320 g/ha, 3 weeks after application
Summary of the method: as §2

[19] = tested on: Galium spurium; experiment: Test Example 5: herbicidal effect by foliage application, plastic box (symbol Q); details: 320 g/ha, 3 weeks after application
Summary of the method: as §2

[20] = application herbicide amount 320 g/ha

## CON=C(C)CC1CC(OC(=O)C(C)(C)OC(C)=O)=C(c2c(C)cc(C)cc2C)C1=O (centres unmarked) [1-034]
[1]
  herbicidal effect on D (Leptochloa chinensis), grade 0-5: 5 (Herbicidal ratio of 90% or more (almost completely withered))
[2]; [20]
  G (Setaria viridis) herbicidal effect grade: 5 (Herbicidal ratio of 90% or more (almost completely withered))
[3]; [20]
  H (Echinochloa crus-galli var. crus-galli) herbicidal effect grade: 5 (Herbicidal ratio of 90% or more (almost completely withered))
[4]; [20]
  K (Lolium multiflorum Lam.) herbicidal effect grade: 5 (Herbicidal ratio of 90% or more (almost completely withered))
[5]
  H: Echinochloa crus-galli var. crus-galli, herbicidal effect grade: 5 (Herbicidal ratio of 90% or more (almost completely withered))
[6]; [20]
  N (Amaranthus retroflexus) herbicidal effect grade: 5 (Herbicidal ratio of 90% or more (almost completely withered))
[7]
  Q (Galium spurium) herbicidal effect grade: 4 (Herbicidal ratio of 70% or higher and lower than 90%)
[8]
  e: wheat, effect on crop grade: 5 (Herbicidal ratio of 90% or more (almost completely withered))
[9]; [20]
  g (rapeseed) effect on crop grade: 5 (Herbicidal ratio of 90% or more (almost completely withered))
[10]; [20]
  L (Apera spica-venti) herbicidal effect grade: 5 (Herbicidal ratio of 90% or more (almost completely withered))
[11]
  G: Setaria viridis, herbicidal effect grade: 5 (Herbicidal ratio of 90% or more (almost completely withered))
[12]
  J: Alopecurus myosuroides, herbicidal effect grade: 5 (Herbicidal ratio of 90% or more (almost completely withered))
[13]
  g: rapeseed, effect on crop grade: 5 (Herbicidal ratio of 90% or more (almost completely withered))
[14]
  Herbicidal effect grade, C: Monochoria vaginalis: 2 (Herbicidal ratio of 20% or higher and lower than 40%)
[15]; [20]
  c (corn) effect on crop grade: 4 (Herbicidal ratio of 70% or higher and lower than 90%)
[16]
  Herbicidal effect grade, B: Scirpus juncoides: 4 (Herbicidal ratio of 70% or higher and lower than 90%)

## CON=C(C)CC1CC(OC(=O)CCC2CCCCC2)=C(c2c(C)cc(C)cc2C)C1=O (centres unmarked) [1-035]
[1]
  herbicidal effect on D (Leptochloa chinensis), grade 0-5: 5 (Herbicidal ratio of 90% or more (almost completely withered))
[2]; [20]
  G (Setaria viridis) herbicidal effect grade: 5 (Herbicidal ratio of 90% or more (almost completely withered))
[3]; [20]
  H (Echinochloa crus-galli var. crus-galli) herbicidal effect grade: 5 (Herbicidal ratio of 90% or more (almost completely withered))
[4]; [20]
  K (Lolium multiflorum Lam.) herbicidal effect grade: 5 (Herbicidal ratio of 90% or more (almost completely withered))
[5]
  H: Echinochloa crus-galli var. crus-galli, herbicidal effect grade: 5 (Herbicidal ratio of 90% or more (almost completely withered))
[6]; [20]
  N (Amaranthus retroflexus) herbicidal effect grade: 5 (Herbicidal ratio of 90% or more (almost completely withered))
[7]
  Q (Galium spurium) herbicidal effect grade: 0 (Herbicidal ratio of 5% or lower (almost no effect))
[8]
  e: wheat, effect on crop grade: 5 (Herbicidal ratio of 90% or more (almost completely withered))
[9]; [20]
  g (rapeseed) effect on crop grade: 5 (Herbicidal ratio of 90% or more (almost completely withered))
[10]; [20]
  L (Apera spica-venti) herbicidal effect grade: 5 (Herbicidal ratio of 90% or more (almost completely withered))
[11]
  G: Setaria viridis, herbicidal effect grade: 5 (Herbicidal ratio of 90% or more (almost completely withered))
[12]
  J: Alopecurus myosuroides, herbicidal effect grade: 5 (Herbicidal ratio of 90% or more (almost completely withered))
[13]
  g: rapeseed, effect on crop grade: 4 (Herbicidal ratio of 70% or higher and lower than 90%)
[14]
  Herbicidal effect grade, C: Monochoria vaginalis: 2 (Herbicidal ratio of 20% or higher and lower than 40%)
[15]; [20]
  c (corn) effect on crop grade: 4 (Herbicidal ratio of 70% or higher and lower than 90%)
[16]
  Herbicidal effect grade, B: Scirpus juncoides: 5 (Herbicidal ratio of 90% or more (almost completely withered))

## CON=C(C)CC1CC(OC(=O)COCc2ccccc2)=C(c2c(C)cc(C)cc2C)C1=O (centres unmarked) [1-094]
[1]
  herbicidal effect on D (Leptochloa chinensis), grade 0-5: 5 (Herbicidal ratio of 90% or more (almost completely withered))
[2]; 320 g/ha
  G: Setaria viridis, herbicidal effect grade: 5 (Herbicidal ratio of 90% or more (almost completely withered))
[3]; 320 g/ha
  H: Echinochloa crus-galli var. crus-galli, herbicidal effect grade: 5 (Herbicidal ratio of 90% or more (almost completely withered))
[17]; 320 g/ha
  P: Stellaria media, herbicidal effect grade: 0 (Herbicidal ratio of 5% or lower (almost no effect))
[4]; 320 g/ha
  K: Lolium multiflorum Lam., herbicidal effect grade: 5 (Herbicidal ratio of 90% or more (almost completely withered))
[5]
  H: Echinochloa crus-galli var. crus-galli, herbicidal effect (criteria 0-5): 5 (Herbicidal ratio of 90% or more (almost completely withered))
[6]; 320 g/ha
  N: Amaranthus retroflexus, herbicidal effect grade: 4 (Herbicidal ratio of 70% or higher and lower than 90%)
[8]
  e: wheat, effect on crop (criteria 0-5): 5 (Herbicidal ratio of 90% or more (almost completely withered))
[9]; 320 g/ha
  g: rapeseed, effect grade on crop: 4 (Herbicidal ratio of 70% or higher and lower than 90%)
[10]; 320 g/ha
  L: Apera spica-venti, herbicidal effect grade: 5 (Herbicidal ratio of 90% or more (almost completely withered))
[18]
  P: Stellaria media, herbicidal effect (criteria 0-5): 3 (Herbicidal ratio of 40% or higher and lower than 70%)
[11]
  G: Setaria viridis, herbicidal effect (criteria 0-5): 5 (Herbicidal ratio of 90% or more (almost completely withered))
[19]
  Q: Galium spurium, herbicidal effect (criteria 0-5): 0 (Herbicidal ratio of 5% or lower (almost no effect))
[12]
  J: Alopecurus myosuroides, herbicidal effect (criteria 0-5): 5 (Herbicidal ratio of 90% or more (almost completely withered))
[13]
  g: rapeseed, effect on crop (criteria 0-5): 4 (Herbicidal ratio of 70% or higher and lower than 90%)
[14]
  Herbicidal effect grade, C: Monochoria vaginalis: 1 (Herbicidal ratio of 5% or higher and lower than 20%)
[15]; 320 g/ha
  c: corn, effect grade on crop: 4 (Herbicidal ratio of 70% or higher and lower than 90%)
[16]
  Herbicidal effect grade, B: Scirpus juncoides: 5 (Herbicidal ratio of 90% or more (almost completely withered))

## CON=C(CC1CC(O)=C(c2c(C)cc(C#C[Si](C)(C)C)cc2C)C1=O)C(C)C (centres unmarked) [9-005]
[1]; Table 24
  D (Leptochloa chinensis) herbicidal effect grade: 5 (Herbicidal ratio of 90% or more (almost completely withered))
[2]; [20]
  Herbicidal effect grade, G: Setaria viridis: 0 (Herbicidal ratio of 5% or lower (almost no effect))
[3]; [20]
  Herbicidal effect grade, H: Echinochloa crus-galli var. crus-galli: 0 (Herbicidal ratio of 5% or lower (almost no effect))
[17]; [20]
  Herbicidal effect grade, P: Stellaria media: 0 (Herbicidal ratio of 5% or lower (almost no effect))
[4]; [20]
  Herbicidal effect grade, K: Lolium multiflorum Lam.: 4 (Herbicidal ratio of 70% or higher and lower than 90%)
[5]
  H: Echinochloa crus-galli var. crus-galli, herbicidal effect grade: 5 (Herbicidal ratio of 90% or more (almost completely withered))
[6]; [20]
  Herbicidal effect grade, N: Amaranthus retroflexus: 0 (Herbicidal ratio of 5% or lower (almost no effect))
[8]
  e: wheat, effect on crop grade: 0 (Herbicidal ratio of 5% or lower (almost no effect))
[9]; [20]
  Effect on crop grade, g: rapeseed: 0 (Herbicidal ratio of 5% or lower (almost no effect))
[10]; [20]
  Herbicidal effect grade, L: Apera spica-venti: 1 (Herbicidal ratio of 5% or higher and lower than 20%)
[18]
  P: Stellaria media, herbicidal effect grade: 0 (Herbicidal ratio of 5% or lower (almost no effect))
[11]
  G: Setaria viridis, herbicidal effect grade: 4 (Herbicidal ratio of 70% or higher and lower than 90%)
[19]
  Q: Galium spurium, herbicidal effect grade: 0 (Herbicidal ratio of 5% or lower (almost no effect))
[12]
  J: Alopecurus myosuroides, herbicidal effect grade: 4 (Herbicidal ratio of 70% or higher and lower than 90%)
[13]
  g: rapeseed, effect on crop grade: 3 (Herbicidal ratio of 40% or higher and lower than 70%)
[14]
  Herbicidal effect grade, C: Monochoria vaginalis: 0 (Herbicidal ratio of 5% or lower (almost no effect))
[15]; [20]
  Effect on crop grade, c: corn: 0 (Herbicidal ratio of 5% or lower (almost no effect))
[16]
  Herbicidal effect grade, B: Scirpus juncoides: 0 (Herbicidal ratio of 5% or lower (almost no effect))
